# In US10981021B2, “Method for transiently disrupting a region of the blood-brain barrier of a human” (Carthera, priority 2016, dated 2021):
# “And” between values parts separate entries of the source, which are not always exact repeats. Identical values can stand only once.
# Tested on: recurrent glioblastoma (GBM)
# Test: Clinical trial: monthly ultrasound BBB opening followed by carboplatin in recurrent glioblastoma patients
# Description: Patients experiencing recurrence (first, second or third) of a histologically proven de novo glioblastoma (GBM), previously treated with at least the first line standard of care were included (i.e. radiation with concurrent and adjuvant temozolomide). Patients had to have a growing contrast-enhancing tumor of less than 35 mm in diameter and be eligible for carboplatin-based chemotherapy.
# The trial was designed as a dose escalation study (Simon et al. 1997) in which the US pressure was increased throughout the study starting at 0.5 and increasing to 1.1 MPa through 5 different “dose” levels (0.50, 0.65, 0.80, 0.95, and 1.1 MPa).
# A minimum of three patients were included at each dose level. If none of the patients experienced a dose-limiting toxicity (DLT), the next dose level was opened. If one patient experienced a DLT, three additional patients were enrolled at that dose level.
# Patients received US activation and BBB disruption every four weeks. The first treatment was performed at the initial “dose” level for the inclusion group, the second treatment at the next highest dose level, etc. Patients were treated monthly for up to a maximum of six treatments or until there was evidence of tumor progression.
# All patients were assessed monthly using MR imaging, blood sampling, and clinical neurological evaluation. Two days prior to each planned ultrasound treatment, tumor status was evaluated on MRI according to the Response Assessment in Neuro-Oncology (RANO) Criteria (Wen et al. 2010). Progression-free survival (PFS) and overall survival (OS) were also assessed. Patients left the study if tumor progression was identified, which defined progression as an increase in tumor size of more than 25% or an increase in T2/FLAIR or as a neurological status degradation (Wen et al. 2010).
# In the absence of tumor progression and significant toxicity, the BBB opening session followed by carboplatin injection was scheduled two days after. […]
# Carboplatin dose (AUC, area under the curve) administration was calculated based on the Calvert formula taking into account renal function. […]
# [1] = per patient, recurrent GBM, monthly US (0.5-1.1 MPa) + SonoVue BBB opening followed by i.v. carboplatin AUC 4-6
compound,measurement,setting,value
N.N.O=C([O-])C1(C(=O)[O-])CCC1.[Pt+2] [Carboplatin],cerebral carboplatin-related toxicity,"GBM patients, carboplatin perfusion started within 60 minutes after US BBB opening",No cerebral carboplatin-related toxicity was observed
same,Duration on-study,[1],3 months (4×) and 2 months (6×) and 2.5 months and >5 months and >4 months and 4 months and still on study
same,"Tumor Progression (MRI, FLAIR/ T1Gd) in the acoustic",[1],Yes (5×) and No (9×) and slight
